{"source": "patent US7192928B1", "about": "“T cell antigen receptor peptides” (Northern Sydney & Central Coast Area Health Services, priority 1996, dated 2007)", "key": {"[1]": {"test_system": "adjuvant induced arthritis in rats", "experiment": "Adjuvant-induced arthritis in rats", "format": "in vivo, rat", "conditions": "for Summary of in vivo adjuvant induced arthritis results: TREATMENT: 7 mg peptide with 1 mg MTB, rats with arthritis/rats in group; for rats showing no symptoms of arthritis / efficacy against MTB-induced arthritis / rats with mild disease / minor symptoms: 7 mg peptide; for rats showing no symptoms of arthritis: duration of the experiment; for effectiveness in adjuvant induced arthritis model, summary statement: summary of Table 4; for efficacy against MTB-induced arthritis: section (ii)"}, "[2]": {"test_system": "rat T-cell line specific to MTB", "experiment": "Antigen-stimulated proliferation of MTB-specific T-cell line (3H-thymidine incorporation)", "format": "cell-based", "conditions": "for effect on T-cell proliferation / counts relative to vehicle control: 100 μM"}, "[3]": {"experiment": "Solubility of the peptides in stock solutions", "format": "physicochemical", "conditions": "for appearance of peptide stock solution: stock solutions 1 mg/ml or 1 mM", "procedure": "The solubility of the peptides was variable. At the concentration of the stock solutions, 1 mg/ml or 1 mM, most peptide solutions looked clear. […] Therefore, the true concentration of peptides in solution in the culture wells would be less than those nominated in the case of these partially soluble peptides. Core peptide could be dissolved at 2 mg/ml, but was not completely soluble at 5 mg/ml. […] The vehicle for the peptides, except M and N, was 0.1% acetic acid which gave 0.01%, i.e., 1.75 mM in the wells. […] In these experiments, effects of peptides could still be determined by comparison with the vehicle control. The 0.05M sodium carbonate buffer, used to dissolve peptides M and N, was not as detrimental to line T-cells as acetic acid."}, "[4]": {"test_system": "rat primed lymph node cells (PLNC)", "conditions": "for effect on antigen-stimulated T-cell proliferation: PLNC Experiment 2, FIG. 3, peptides alone and in combination; for inhibition of antigen-stimulated T-cell proliferation, overall statement: PLNCs and T-cell lines, summary over experiments"}, "[5]": {"conditions": "peptides 7 mg/rat, CS 50 mg/kg, DXM 2 mg/kg"}, "[6]": {"conditions": "T-Cell Line Experiment 2, FIG. 5"}, "[7]": {"conditions": "section (iii), 5 rats per group"}, "[8]": {"conditions": "respective buffers (0.1% acetic acid; 0.05M sodium carbonate for M and N)"}, "[9]": {"conditions": "section (i), summary of Table 3 experiments"}, "[10]": {"conditions": "PLNC Experiment 1, FIG. 2, peptide 100 μg/ml"}}, "note": "“And” between values parts separate entries of the source, which are not always exact repeats. Equal values may be shown once. Read-outs that look alike come from different tables or passages of the source. Marks after values point to notes of the source that are not given here."}
{"compound": "C[C@@H]1C[C@H]2[C@@H]3CCC4=CC(=O)C=C[C@]4(C)[C@@]3(F)[C@@H](O)C[C@]2(C)[C@@]1(O)C(=O)CO", "note": "[DXM*, dexamethasone, reference compound]", "values": [{"measurement": "EFFECT on adjuvant induced arthritis", "setting": "[1]; [5]", "value": "No effect+"}]}
{"compound": "H-FLFAEIVSI-OH [Peptide N, F L F A E I V S I]", "values": [{"measurement": "effect on T-cell proliferation", "setting": "[2]; [6]", "value": "no effects"}, {"measurement": "Summary of in vivo adjuvant induced arthritis results: TREATMENT", "setting": "[1]", "value": "0/5*"}, {"measurement": "protection", "setting": "[1]; section (iii)", "value": "protective to a variable extent"}, {"measurement": "rats showing no symptoms of arthritis", "setting": "[1]; [7]", "value": "All five"}, {"measurement": "effectiveness in adjuvant induced arthritis model, summary statement", "setting": "[1]", "value": "very effective"}, {"measurement": "solubility in words", "setting": "[3]; [8]", "value": "soluble in their respective buffers"}, {"measurement": "effect on antigen-stimulated T-cell proliferation", "setting": "[4]", "value": "did not reduce proliferation"}]}
{"compound": "H-GLRILLLKV-OH [CP, G L R I L L L K V]", "values": [{"measurement": "counts (tritiated thymidine incorporation)", "setting": "[2]; T-Cell Line Experiment 1, FIG. 4, 100 μg/ml, vehicle control approximately 30000", "value": "approximately 18000 cpm"}, {"measurement": "counts relative to the control level", "setting": "[2]; T-Cell Line Experiment 1, FIG. 4, 200 μg/ml", "value": "about 25%"}, {"measurement": "counts relative to vehicle control", "setting": "[2]; [6]", "value": "approximately 33%"}, {"measurement": "counts relative to the control", "setting": "[2]; T-Cell Line Experiment 2, FIG. 5, 200 μM", "value": "~16", "unit": "%"}, {"measurement": "animals with no evidence of arthritis", "setting": "[1]; first experiment, three rats per group, after 18 days, suspended in adjuvant, base of tail", "value": "2/3"}, {"measurement": "EFFECT on adjuvant induced arthritis", "setting": "[1]; [5]", "value": "Protective"}, {"measurement": "EFFECT on adjuvant induced arthritis", "setting": "[1]; [9]", "value": "Best results"}, {"measurement": "degree of inhibition of antigen-stimulated T-cell proliferation", "setting": "[4]", "value": "50-9096%"}, {"measurement": "inhibition at different concentrations in the wells", "setting": "[4]; 20 μl of 1, 2 or 5 mg/ml stock added to the wells (0.1, 0.2, 0.5 mg/ml)", "value": "0.2 mg/ml CP was more inhibitory than 0.1 mg/ml and 0.5 mg/ml was less effective"}, {"measurement": "counts relative to the vehicle control (T-cell proliferation)", "setting": "[4]; PLNC Experiment 1, FIG. 2, peptide 100 μg/ml, MTB 100 μg/ml", "value": "approximately 10%"}, {"measurement": "effect on antigen-stimulated T-cell proliferation", "setting": "[4]", "value": "reduced antigen-stimulated T-cell proliferation, whether freshly dissolved or stored for more than three months at 4 °C"}, {"measurement": "inhibition of antigen-stimulated T-cell proliferation, overall statement", "setting": "[4]", "value": "most effective"}, {"measurement": "inhibition of antigen-stimulated T-cell proliferation, overall statement", "setting": "[4]; listed as core peptide", "value": "effective at inhibiting antigen-stimulated T-cell proliferation"}, {"measurement": "proliferation reduced by", "setting": "[4]; first experiment", "value": "go"}]}
{"compound": "H-SSDVPCDATLT-OH [K, S S D V P C D A T L T]", "values": [{"measurement": "Summary of in vivo adjuvant induced arthritis results: TREATMENT", "setting": "[1]", "value": "5/10"}, {"measurement": "efficacy against MTB-induced arthritis", "setting": "[1]", "value": "comparable in efficacy"}, {"measurement": "effectiveness in adjuvant induced arthritis model, summary statement", "setting": "[1]", "value": "variable response in the delay of disease induction and severity"}, {"measurement": "solubility in words", "setting": "[3]; [8]", "value": "soluble in their respective buffers"}]}
{"compound": "H-MGLRILLL-OH [Peptide A, M G L R I L L L]", "values": [{"measurement": "EFFECT on adjuvant induced arthritis", "setting": "[1]; [5]", "value": "Protective"}]}
{"compound": "H-AGFNLLMT-OH [Peptide O, A G F N L L M T]", "values": [{"measurement": "Summary of in vivo adjuvant induced arthritis results: TREATMENT", "setting": "[1]", "value": "1/10*"}, {"measurement": "efficacy against MTB-induced arthritis", "setting": "[1]", "value": "most effective at ameliorating the development of MTB-induced arthritis"}, {"measurement": "effectiveness in adjuvant induced arthritis model, summary statement", "setting": "[1]", "value": "very effective"}, {"measurement": "appearance of peptide stock solution", "setting": "[3]", "value": "turbid or had undissolved particles"}]}
{"compound": "H-LDILLLEV-OH [E, L D I L L L E V]", "values": [{"measurement": "EFFECT on adjuvant induced arthritis", "setting": "[1]; [5]", "value": "No effect"}, {"measurement": "EFFECT on adjuvant induced arthritis", "setting": "[1]; [9]", "value": "no effect"}]}
{"compound": "H-LLMTLRLWSS-OH [Peptide P, L L M T L R L W S S]", "values": [{"measurement": "effect on T-cell proliferation", "setting": "[2]; [6]", "value": "marginal effect"}, {"measurement": "Summary of in vivo adjuvant induced arthritis results: TREATMENT", "setting": "[1]", "value": "0/5"}, {"measurement": "rats that developed minor symptoms", "setting": "[1]; Table 4, of 5 treated rats", "value": "(4 developed minor symptoms)"}, {"measurement": "protection", "setting": "[1]; section (iii)", "value": "protective to a variable extent"}, {"measurement": "rats with mild disease / minor symptoms", "setting": "[1]; [7]", "value": "four"}, {"measurement": "rats showing no symptoms of arthritis", "setting": "[1]; [7]", "value": "one"}, {"measurement": "effectiveness in adjuvant induced arthritis model, summary statement", "setting": "[1]", "value": "variable response in the delay of disease induction and severity"}, {"measurement": "appearance of peptide stock solution", "setting": "[3]", "value": "turbid or had undissolved particles"}, {"measurement": "effect on T-cell proliferation", "setting": "[4]; [10]", "value": "most inhibitory"}, {"measurement": "effect on antigen-stimulated T-cell proliferation", "setting": "[4]", "value": "showed activity"}]}
{"compound": "H-YGRADCGITS-OH [Peptide J, Y G R A D G G I T S]", "values": [{"measurement": "Summary of in vivo adjuvant induced arthritis results: TREATMENT", "setting": "[1]", "value": "3/10*"}, {"measurement": "efficacy against MTB-induced arthritis", "setting": "[1]", "value": "comparable in efficacy"}, {"measurement": "effectiveness in adjuvant induced arthritis model, summary statement", "setting": "[1]", "value": "very effective"}]}
{"compound": "H-LRILLLGV-OH [Peptide H, L R I L L L G V]", "values": [{"measurement": "counts relative to vehicle control", "setting": "[2]; [6]", "value": 66, "unit": "%"}, {"measurement": "EFFECT on adjuvant induced arthritis", "setting": "[1]; [5]", "value": "Protective"}, {"measurement": "appearance of peptide stock solution", "setting": "[3]", "value": "turbid or had undissolved particles"}, {"measurement": "effect on T-cell proliferation", "setting": "[4]; [10]", "value": "appeared to reduce T-cell proliferation"}]}
{"compound": "H-IVIVDICIT-OH [Peptide L, I V I V D I C I T]", "values": [{"measurement": "Summary of in vivo adjuvant induced arthritis results: TREATMENT", "setting": "[1]", "value": "0/5*"}, {"measurement": "weight loss", "setting": "[1]; section (iv), FIG. 10, 7 mg peptide L, five rats", "value": "none of the peptide L treated group lost weight"}, {"measurement": "paw and ankle thickness", "setting": "[1]; section (iv), FIG. 11(a–d), 7 mg peptide L", "value": "significantly decreased compared to control"}, {"measurement": "effectiveness in adjuvant induced arthritis model, summary statement", "setting": "[1]", "value": "very effective"}]}
{"compound": "H-IIVTDVIATL-OH [Peptide M, I I V T D V I A T L]", "values": [{"measurement": "effect on T-cell proliferation", "setting": "[2]; [6]", "value": "no effects"}, {"measurement": "Summary of in vivo adjuvant induced arthritis results: TREATMENT", "setting": "[1]", "value": "2/5"}, {"measurement": "protection", "setting": "[1]; section (iii)", "value": "protective to a variable extent"}, {"measurement": "rats with mild disease / minor symptoms", "setting": "[1]; [7]", "value": "Two"}, {"measurement": "rats showing no symptoms of arthritis", "setting": "[1]; [7]", "value": "One"}, {"measurement": "rats of the group killed", "setting": "[1]; section (iii), 5 rats per group, on days 19 and 21", "value": 2}, {"measurement": "effectiveness in adjuvant induced arthritis model, summary statement", "setting": "[1]", "value": "variable response in the delay of disease induction and severity"}, {"measurement": "solubility in words", "setting": "[3]", "value": "soluble in their respective buffers"}, {"measurement": "effect on antigen-stimulated T-cell proliferation", "setting": "[4]", "value": "did not reduce proliferation"}]}
{"compound": "H-LGILLLKV-OH [I, L G I L L L K V]", "values": [{"measurement": "EFFECT on adjuvant induced arthritis", "setting": "[1]; [5]", "value": "Protective"}, {"measurement": "appearance of peptide stock solution", "setting": "[3]", "value": "turbid or had undissolved particles"}]}
{"compound": "H-LGILLLGV-OH [C, L G I L L L G V]", "values": [{"measurement": "EFFECT on adjuvant induced arthritis", "setting": "[1]; [5]", "value": "No effect"}, {"measurement": "EFFECT on adjuvant induced arthritis", "setting": "[1]; [9]", "value": "no effect"}]}
{"compound": "H-ILLLKVAG-OH [B, I L L L K V A G]", "values": [{"measurement": "EFFECT on adjuvant induced arthritis", "setting": "[1]; [5]", "value": "Protective"}, {"measurement": "EFFECT on adjuvant induced arthritis", "setting": "[1]; [9]", "value": "Best results"}]}
